IC50 data for 37 molecules are collected here from ChEMBL document CHEMBL1123274, “Azasteroids: structure-activity relationships for inhibition of 5 alpha-reductase and of androgen receptor binding” (J Med Chem, 1986).

In one assay the target is T1, Androgen receptor (Rattus norvegicus, UniProt P15207).
T1 sequence (P15207 whole entry): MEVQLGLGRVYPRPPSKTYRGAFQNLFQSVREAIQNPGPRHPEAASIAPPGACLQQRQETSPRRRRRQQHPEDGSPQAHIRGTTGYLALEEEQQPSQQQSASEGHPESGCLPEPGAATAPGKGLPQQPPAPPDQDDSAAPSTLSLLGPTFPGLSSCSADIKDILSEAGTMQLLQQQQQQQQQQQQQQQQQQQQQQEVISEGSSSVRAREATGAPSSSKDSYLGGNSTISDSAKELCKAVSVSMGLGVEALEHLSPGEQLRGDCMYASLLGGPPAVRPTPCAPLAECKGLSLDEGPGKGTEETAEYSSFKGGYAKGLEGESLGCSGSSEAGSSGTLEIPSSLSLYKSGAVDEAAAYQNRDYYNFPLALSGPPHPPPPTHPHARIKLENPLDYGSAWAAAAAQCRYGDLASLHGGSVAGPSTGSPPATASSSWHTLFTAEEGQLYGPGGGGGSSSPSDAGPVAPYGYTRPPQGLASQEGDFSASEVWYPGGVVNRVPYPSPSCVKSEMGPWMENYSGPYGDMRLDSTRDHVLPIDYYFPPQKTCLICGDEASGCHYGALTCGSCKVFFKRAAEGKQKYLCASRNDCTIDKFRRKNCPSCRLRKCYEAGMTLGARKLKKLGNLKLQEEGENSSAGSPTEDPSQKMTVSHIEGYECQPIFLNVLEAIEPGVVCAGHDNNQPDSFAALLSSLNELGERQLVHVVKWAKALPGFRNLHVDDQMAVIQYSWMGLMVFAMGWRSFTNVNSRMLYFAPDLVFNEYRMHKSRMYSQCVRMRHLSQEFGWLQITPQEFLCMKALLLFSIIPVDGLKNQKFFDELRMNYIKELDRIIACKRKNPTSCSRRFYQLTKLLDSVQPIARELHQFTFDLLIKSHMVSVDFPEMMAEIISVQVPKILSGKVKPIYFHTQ
Kind of assay: In vitro antagonist activity against rat prostatic androgen receptor (AR).

Assay [1] concerns the target T2, Steroid 5-alpha-reductase (Rattus norvegicus, UniProt P24008+P31214).
T2 sequence (P24008 whole entry): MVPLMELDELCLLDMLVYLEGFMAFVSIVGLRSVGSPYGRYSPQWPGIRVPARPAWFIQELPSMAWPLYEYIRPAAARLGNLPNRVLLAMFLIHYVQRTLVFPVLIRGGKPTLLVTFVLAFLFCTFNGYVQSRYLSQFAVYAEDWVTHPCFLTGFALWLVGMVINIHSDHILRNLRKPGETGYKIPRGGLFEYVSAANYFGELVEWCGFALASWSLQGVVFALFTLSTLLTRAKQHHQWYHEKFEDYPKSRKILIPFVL
T2 sequence (P31214 whole entry): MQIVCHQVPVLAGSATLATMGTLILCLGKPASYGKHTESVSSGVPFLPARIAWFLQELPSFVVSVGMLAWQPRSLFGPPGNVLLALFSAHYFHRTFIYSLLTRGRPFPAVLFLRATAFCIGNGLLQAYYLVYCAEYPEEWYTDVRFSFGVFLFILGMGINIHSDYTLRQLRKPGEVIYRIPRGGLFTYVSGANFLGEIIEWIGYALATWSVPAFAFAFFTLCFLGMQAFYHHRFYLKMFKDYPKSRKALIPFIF
Nature of the assay: In vitro inhibitory activity against rat prostatic steroid 5-alpha-reductase. It is filed as protein assay.

Usually IC50 stands for the concentration that gives 50% inhibition. For the molecule `CCN(CC)C(=O)CCC(C)[C@H]1CC[C@H]2[C@@H]3CCC4N(C)C(=O)CC[C@]4(C)[C@H]3CC[C@]12C` (some centres undefined), the IC50 against Androgen receptor was found to be 0.43 µM; in assay [1] it was 0.0034 µM.
For `CCN(CC)C(=O)C(C)[C@H]1CC[C@H]2[C@@H]3CCC4N(C)C(=O)CC[C@]4(C)[C@H]3CC[C@]12C` (some centres undefined), the values for the concentration for half-maximal inhibition (IC50) (against Androgen receptor; in assay [1]) were 48 µM and 0.013 µM, respectively.
On to `CC(CCC(=O)[O-])[C@H]1CC[C@H]2[C@@H]3CCC4N(C)C(=O)CC[C@]4(C)[C@H]3CC[C@]12C.[Na+]` (some centres undefined), for which the values for the concentration for half-maximal inhibition (IC50) (at Androgen receptor; in assay [1]) were 21 µM and 0.0036 µM, respectively.
The corresponding values for `CC(C)N(C(=O)[C@H]1CC[C@H]2[C@@H]3CC[C@H]4N(C)C(=O)CC[C@]4(C)[C@H]3CC[C@]12C)C(C)C` are 14 µM and 0.0035 µM.
Take `CC(C)N(C(=O)[C@H]1CC[C@H]2[C@@H]3CC[C@@H]4N(C)C(=O)CC[C@]4(C)[C@H]3CC[C@]12C)C(C)C`: the concentration for half-maximal inhibition (IC50) at Androgen receptor was more than 10 µM; in assay [1], 1 µM.
On to `CCN(CC)C(=O)[C@H]1CC[C@H]2[C@@H]3CC[C@H]4N(C)C(=O)[C@@H](C)C[C@]4(C)[C@H]3CC[C@]12C`, for which the IC50 at Androgen receptor turned out to be 6.1 µM; in assay [1], 0.02 µM.
For the molecule `CCN(CC)C(=O)[C@H]1CC[C@H]2[C@@H]3CC[C@H]4N(C)C(=O)C[C@H](C)[C@]4(C)[C@H]3CC[C@]12C`, the IC50 at Androgen receptor came to 16 µM; in assay [1], 0.086 µM.
The matching figures for `CCN(CC)C(=O)C[C@H]1CC[C@H]2[C@@H]3CCC4N(C)C(=O)CC[C@]4(C)[C@H]3CC[C@]12C` (some centres undefined): 0.56 µM and 0.0079 µM.
For `COC(=O)C(C)[C@H]1CC[C@H]2[C@@H]3CCC4N(C)C(=O)CC[C@]4(C)[C@H]3CC[C@]12C` (some centres undefined), the figures for the IC50 (on Androgen receptor; in assay [1]) were 0.96 µM and 0.022 µM, respectively.
As for `CCN(CC)C(=O)[C@H]1CC[C@H]2[C@@H]3CC[C@H]4N(C)C(=O)C[C@H](C#N)[C@]4(C)[C@H]3CC[C@]12C`, the half-inhibitory concentration (IC50) was more than 10 µM against Androgen receptor and more than 1 µM in assay [1].
Regarding `CC(=O)[C@H]1[C@H](C)C[C@H]2[C@@H]3CCC4N(C)C(=O)CC[C@]4(C)[C@H]3CC[C@@]21C` (some centres undefined), the figures for the IC50 (at Androgen receptor; in assay [1]) were 0.29 µM and 0.0034 µM, respectively.
With `CCCCCCCCCCCCCCCCCCNC(=O)[C@H]1CC[C@H]2[C@@H]3CCC4N(C)C(=O)CC[C@]4(C)[C@H]3CC[C@]12C` (some centres undefined), the 50% inhibitory concentration (IC50) at Androgen receptor worked out at 17 µM; in assay [1] it was 0.02 µM.
Turning to `CCN(CC)C(=O)[C@H]1CC[C@H]2[C@@H]3CC[C@H]4N(C)C(=O)C(=O)C[C@]4(C)[C@H]3CC[C@]12C`, the IC50 stood at 50 µM at Androgen receptor and 0.34 µM in assay [1].
Turning to `CCN(CC)C(=O)[C@H]1CC[C@H]2[C@@H]3CC[C@H]4N(C)/C(=N/O)CC[C@]4(C)[C@H]3CC[C@]12C`, the figures for the IC50 (on Androgen receptor; in assay [1]) were 0.54 µM and 0.1 µM, respectively.
For the molecule `CCN(CC)C(=O)[C@H]1CC[C@H]2[C@@H]3CC[C@H]4N(NC=O)C(=O)CC[C@]4(C)[C@H]3CC[C@]12C`, the results for the IC50 (on Androgen receptor; in assay [1]) were more than 10 µM and 0.4 µM, respectively.
Take `CN1C(=O)CC[C@@]2(C)C1CC[C@H]1[C@@H]3CC[C@H](C(N)=O)[C@@]3(C)CC[C@@H]12` (some centres undefined): the IC50 on Androgen receptor came to 0.44 µM; in assay [1], 0.017 µM.
As for `CCNC(=O)[C@H]1CC[C@H]2[C@@H]3CCC4N(C)C(=O)CC[C@]4(C)[C@H]3CC[C@]12C` (some centres undefined), the IC50 turned out to be 1.1 µM at Androgen receptor and 0.012 µM in assay [1].
`CNC(=O)[C@H]1CC[C@H]2[C@@H]3CCC4N(C)C(=O)CC[C@]4(C)[C@H]3CC[C@]12C` (some centres undefined): the IC50 came out at 1.1 µM against Androgen receptor and 0.038 µM in assay [1].
As to `CC(O)[C@H]1[C@H](C)C[C@H]2[C@@H]3CCC4N(C)C(=O)CC[C@]4(C)[C@H]3CC[C@@]21C` (some centres undefined), the half-inhibitory concentration (IC50) at Androgen receptor turned out to be 0.17 µM; in assay [1], 0.0028 µM.
The corresponding values for `CN1C(=O)CC[C@@]2(C)C1CC[C@@H]1[C@@H]2CC[C@@]2(C)[C@H]1CC[C@@]21CCC(=O)O1` (some centres undefined) are 0.089 µM and 0.04 µM.
Regarding `CCN(CC)C(=O)[C@H]1CC[C@H]2[C@@H]3CC[C@H]4N(C)C(=O)[C@H](O)C[C@]4(C)[C@H]3CC[C@]12C`, the half-maximal inhibitory concentration (IC50) stood at 3.2 µM against Androgen receptor and 0.46 µM in assay [1].
Regarding `CC(=O)N[C@H]1CC[C@H]2[C@@H]3CCC4N(C)C(=O)CC[C@]4(C)[C@H]3CC[C@]12C` (some centres undefined), the IC50 against Androgen receptor stood at 1.4 µM; in assay [1] it was 0.27 µM.
Take `CC(C#N)[C@H]1CC[C@H]2[C@@H]3CCC4N(C)C(=O)CC[C@]4(C)[C@H]3CC[C@]12C` (some centres undefined): the results for the IC50 (on Androgen receptor; in assay [1]) were 0.29 µM and 0.0076 µM, respectively.
The matching figures for `CN1C(=O)CC[C@@]2(C)C1CC[C@H]1[C@@H]3CC[C@H](C(=O)N4CCOCC4)[C@@]3(C)CC[C@@H]12` (some centres undefined): 10 µM and 0.027 µM.
Turning to `C[C@H]1CC2N(C)C(=O)CC[C@]2(C)[C@H]2CC[C@@]3(C)[C@@H](CC[C@@]34CCCO4)[C@H]12` (some centres undefined), the IC50 against Androgen receptor was determined as 0.5 µM; in assay [1], 0.0046 µM.
In the case of `CCC(C)C(=O)[C@H]1CC[C@H]2[C@@H]3CCC4N(C)C(=O)C=C[C@]4(C)[C@H]3CC[C@]12C` (some centres undefined), the half-inhibitory concentration (IC50) at Androgen receptor was found to be 0.064 µM; in assay [1], 0.12 µM.
`CC(C)N(C(=O)[C@H]1CC[C@H]2[C@@H]3CCC4NC(=O)C=C[C@]4(C)[C@H]3CC[C@]12C)C(C)C` (some centres undefined): the figures for the IC50 (at Androgen receptor; in assay [1]) were 18 µM and 0.079 µM, respectively.
On to `CC(C)N(C(=O)[C@H]1CC[C@H]2[C@@H]3CCC4N(C)C(=O)C=C[C@]4(C)[C@H]3CC[C@]12C)C(C)C` (some centres undefined), for which the values for the concentration for half-maximal inhibition (IC50) (against Androgen receptor; in assay [1]) were 10 µM and 0.43 µM, respectively.
In the case of `CCN(CC)C(=O)[C@H]1CCC[C@H]2[C@@H]3CC[C@H]4N(C)C(=O)OC[C@]4(C)[C@H]3CC[C@]12C`, the half-maximal inhibitory concentration (IC50) is 3.7 µM at Androgen receptor and 0.5 µM in assay [1].
On to `CC(C)(C)NC(=O)[C@H]1CC[C@H]2[C@@H]3CCC4NC(=O)CC[C@]4(C)[C@H]3CC[C@]12C` (some centres undefined), for which the 50% inhibitory concentration (IC50) was more than 100 µM on Androgen receptor and 0.0063 µM in assay [1].
The corresponding values for `CN1C(=O)CC[C@@]2(C)C1CC[C@H]1[C@@H]3CC[C@H](C(=O)NC(C)(C)C)[C@@]3(C)CC[C@@H]12` (some centres undefined) are 0.68 µM and 0.00056 µM.
With `CCN1C(=O)CC[C@@]2(C)C1CC[C@@H]1[C@@H]2CC[C@@]2(C)[C@H]1CC[C@@]21CCCO1` (some centres undefined), the IC50 on Androgen receptor was found to be 13 µM; in assay [1] it was 1.17 µM.
As to `CC(=O)N[C@@H]1CC[C@H]2[C@@H]3CCC4N(C)C(=O)CC[C@]4(C)[C@H]3CC[C@]12C` (some centres undefined), the IC50 was 40 µM against Androgen receptor and 0.058 µM in assay [1].
As to `CCN(CC)C(=O)[C@H]1CC[C@H]2[C@@H]3CC=C4N(N)C(=O)CC[C@]4(C)[C@H]3CC[C@]12C`, the figures for the IC50 (on Androgen receptor; in assay [1]) were 5.4 µM and 0.036 µM, respectively.
The corresponding values for `CCN(CC)C(=O)[C@H]1CC[C@H]2[C@@H]3CC=C4N(O)C(=O)CC[C@]4(C)[C@H]3CC[C@]12C` are 0.19 µM and 0.22 µM.
The matching figures for `CCN(CC)C(=O)[C@H]1CC[C@H]2[C@@H]3CC[C@H]4N(C)C(=O)C=C[C@]4(C)[C@H]3CC[C@]12C`: 0.45 µM and 0.29 µM.
Take `CC(C)N(C(=O)[C@H]1CC[C@H]2[C@@H]3CC=C4NC(=O)CC[C@]4(C)[C@H]3CC[C@]12C)C(C)C`: the values for the half-maximal inhibitory concentration (IC50) (against Androgen receptor; in assay [1]) were 14 µM and 0.086 µM, respectively.
